In publication PMC6364417, “Kinase inhibitor library screening identifies synergistic drug combinations effective in sensitive and resistant melanoma cells” (Journal of Experimental & Clinical Cancer Research : CR, 2019):

What was measured:
Assay in all cases: Kinase inhibitor library screening, PrestoBlue cell viability, 1 or 10 μM, 72 h
501Mel cells (parental) = settings: 501Mel Parental, 72 h
Method: (§1) After 72 h of treatment, cell viability was assessed using the PrestoBlue Cell Viability Reagent (ThermoFisher Scientific). Measurements were performed with the CLARIOstar Monochromator microplate reader (BMG Labtech).
(§2) Kinase inhibitor library screening. […] Each cell line was treated in its sensitive form (parental), and also as 2 resistant derivatives, which were made resistant to either Vemurafenib (XP) or Dabrafenib (GP). Drugs were added at 2 different concentrations, 1 and 10 μM, for 72 h and cell viability was assessed using the PrestoBlue Cell Viability assay. Results are depicted as % viability compared to untreated cells. Each cell line was analyzed at least in duplicate. […] (XLSX 95 kb)

[1] = test system: 501Mel-GP cells (Dabrafenib-resistant); settings: 501Mel GP, 72 h
Method: as §1, §2

[2] = test system: 501Mel-XP cells (Vemurafenib-resistant); settings: 501Mel XP, 72 h
Method: as §1, §2

A375 cells (parental) = settings: A375 Parental, 72 h
Method: as §1, §2

[3] = test system: A375-GP cells (Dabrafenib-resistant); settings: A375 GP, 72 h
Method: as §1, §2

[4] = test system: A375-XP cells (Vemurafenib-resistant); settings: A375 XP, 72 h
Method: as §1, §2

IGR37 cells (parental) = settings: IGR37 Parental, 72 h
Method: as §1, §2

[5] = test system: IGR37-GP cells (Dabrafenib-resistant); settings: IGR37 GP, 72 h
Method: as §1, §2

[6] = test system: IGR37-XP cells (Vemurafenib-resistant); settings: IGR37 XP, 72 h
Method: as §1, §2

Row | SMILES | cell viability (kinase inhibitor library screening) (501Mel cells (parental); 1μΜ) | cell viability (kinase inhibitor library screening) (501Mel cells (parental); 10μΜ) | cell viability (kinase inhibitor library screening) ([1]; 1μΜ) | cell viability (kinase inhibitor library screening) ([1]; 10μΜ) | cell viability (kinase inhibitor library screening) ([2]; 1μΜ) | cell viability (kinase inhibitor library screening) ([2]; 10μΜ) | cell viability (kinase inhibitor library screening) (A375 cells (parental); 10μΜ) | cell viability (kinase inhibitor library screening) (A375 cells (parental); 1μΜ) | cell viability (kinase inhibitor library screening) ([3]; 1μΜ) | cell viability (kinase inhibitor library screening) ([3]; 10μΜ) | cell viability (kinase inhibitor library screening) ([4]; 1μΜ) | cell viability (kinase inhibitor library screening) ([4]; 10μΜ) | cell viability (kinase inhibitor library screening) (IGR37 cells (parental); 1μΜ) | cell viability (kinase inhibitor library screening) (IGR37 cells (parental); 10μΜ) | cell viability (kinase inhibitor library screening) ([5]; 10μΜ) | cell viability (kinase inhibitor library screening) ([6]; 1μΜ) | cell viability (kinase inhibitor library screening) ([6]; 10μΜ) | also measured
1 | COc1cc2ncnc(Nc3cccc(Cl)c3)c2cc1OC [AG-1478 (Tyrphostin AG-1478)] | – | – | – | – | – | – | – | – | – | – | – | – | – | – | – | – | – | cell viability, 501Mel Parental, 1μΜ (501Mel cells (parental); 1μΜ, in %): 96.5; cell viability, 501Mel Parental, 10μΜ (501Mel cells (parental); 10μΜ, in %): 70.7; cell viability, 501Mel GP, 1μΜ ([1]; 1μΜ, in %): 102.7; cell viability, 501Mel GP, 10μΜ ([1]; 10μΜ, in %): 55.4; cell viability, 501Mel XP, 1μΜ ([2]; 1μΜ, in %): 86.2; cell viability, 501Mel XP, 10μΜ ([2]; 10μΜ, in %): 48.5; cell viability, A375 Parental, 10μΜ (A375 cells (parental); 10μΜ, in %): 94.0; cell viability, A375 GP, 1μΜ ([3]; 1μΜ, in %): 91.6; cell viability, A375 GP, 10μΜ ([3]; 10μΜ, in %): 90.4; cell viability, A375 XP, 1μΜ ([4]; 1μΜ, in %): 99.5; cell viability, A375 XP, 10μΜ ([4]; 10μΜ, in %): 98.9; cell viability, IGR37 Parental, 1μΜ (IGR37 cells (parental); 1μΜ, in %): 96.0; cell viability, IGR37 Parental, 10μΜ (IGR37 cells (parental); 10μΜ, in %): 98.8; cell viability, IGR37 GP, 10μΜ ([5]; 10μΜ): 86.3%; cell viability, IGR37 GP, 1μΜ ([5]; 1μΜ, in %): 88.5; cell viability, IGR37 XP, 10μΜ ([6]; 10μΜ): 46.3%; cell viability, IGR37 XP, 1μΜ ([6]; 1μΜ, in %): 76.6
2 | Cc1csc(-c2nnc(Nc3ccc(Oc4ncccc4-c4ccnc(N)n4)cc3)c3ccccc23)c1 [AMG 900] | 87.5% | 70.0% | 90.4% | 60.6% | 77.2% | 59.1% | 30.4% | 46.4% | 44.4% | 34.7% | 52.6% | 47.5% | 94.6% | 78.1% | 79.9% | 100.0% | 66.5% | –
3 | O=C1NC(=O)[C@@H](c2cn3c4c(cccc24)CCC3)[C@@H]1c1c[nH]c2ccccc12 [ARQ 197 (Tivantinib)] | 52.2% | 26.1% | 40.8% | 25.6% | 25.8% | 10.6% | 29.2% | 26.4% | 30.6% | 32.9% | 34.5% | 24.5% | 79.8% | 16.2% | 73.0% | 69.4% | 43.0% | cell viability (kinase inhibitor library screening) ([5]; 1μΜ): 85.1%
